Laboratory results reported in patent US7145037B2, “Adamantane derivatives with neuroprotective, antidepressant and anti-ischaemic activities, and process for preparing them” (Rotta Research Laboraturium S.p.A., priority 2003, dated 2006).
Counter-ions that a name gives are not always drawn. Marks after values point to notes of the source that are not given here. Each block holds one molecule with its values, some of them ahead of it.

What was measured:
NO-synthetase (NOS) = NO-synthetase (NOS) (Oryctolagus cuniculus, UniProt G1SGE1); assay: Inhibition of NO (nitrite) formation in rabbit articular chondrocytes stimulated with IL-1β; type: cell-based; conditions: for IC50: nitrite formation, IL-1β 1 ng/ml, 48 hours, 95% confidence limits in parentheses, read-out: Rabbit articular chondrocytes % inhibition (IC50 × 10^−6M)
Experimental: a) The inhibitory activity on the formation of NO, measured as NO2^− (nitrite), was studied in vitro on culture media of rabbit articular chondrocytes stimulated with the cytokine IL-1β (1 ng/ml) for 48 hours. For the preparation of the chondrocytes, the method described by Berenbaum et al. […] The cells were maintained under these conditions to the point of confluency (about 15 days), the medium being changed every 3 days. […] The stimulation lasted for 48 hours at 37° C. (incubation under air-7% CO2). Next, an assay of the nitrites was performed on the cell supernatant according to the method described by Green et al. [Anal. Biochem. 126, 131–138 (1982)].

NMDA receptor [1] = molecular target: T1, NMDA receptor; assay: Binding of [3H]MK-801 to rat cortical synaptosomial membranes; conditions: H3-MK-801, 45 min at 23° C., read-out: IC50, concentration displacing 50% of the ligand (MK-801) from the receptor
T1 construct: IC50, concentration displacing 50% of the ligand (MK-801) from the receptor; other: rat cortical membranes, H3-MK-801

rat hippocampus slices = assay: Basal release of [3H]noradrenalin from rat hippocampus slices in perfusion; type: cell-based
Experimental: (§1) The animals were sacrificed and the brains rapidly removed from the brain case and immediately transferred at 4° C. into artificial cerebrospinal fluid (aCSF) aerated with a gas mixture composed of 95% oxygen and 5% carbon dioxide. The brains were then sectioned at a temperature of 4° C. and the encephalic areas of interest (hippocampus and corpora striata) removed and immersed in the solution mentioned above.
(§2) Cerebral slices 400 μm thick were then prepared using a McIllwain “chopper”. The hippocampus slices were incubated with 0.08 μM of [^3H] noradrenalin and the striatum slices with 0.01 μM of [^3H] dopamine and/or with 0.09 μM of [^3H] choline at a temperature of 37° C. for 20 minutes. The slices labelled with [^3H] noradrenalin were incubated in the presence of 0.1 μM 6-nitroquipazine and 0.1 μM GBR 12909, which are selective inhibitors of the uptake of serotonin and dopamine, respectively, in order to prevent possible false labelling of serotoninergic and dopaminergic synaptic endings.
(§3) For the same reasons, the slices labelled with [^3H] dopamine were incubated in the presence of 0.1 μM 6-nitroquipazine and 0.1 μM nisoxetine, which are selective inhibitors of serotonin and noradrenalin uptake. […]
(§4) At the end of the experiment, the collected samples and the perfused slices (dissolved in toluene) were subjected to counting of the radioactivity present in each fraction and/or slice using a scintillator for liquid samples. The fractional release of tritiated neurotransmitters was calculated as the amount of radioactivity present in each fraction divided by the total radioactivity present in the slice at the moment at which it was collected. The ratios between the fractional release at a given moment of the perfusion and the fractional release in the first collected fraction were thus calculated for each slice. The effects of the compounds were expressed as a percentage of increase of the release of the neurotransmitters studied relative to the control slices perfused in the absence of drugs (Table 2).

mouse [2] = assay: "Tail pinching" test in the mouse; type: in vivo; conditions: for Immobility time: 5 minutes; for % effect vs control: immobility time; for ED50: oral, calculated ED50, read-out: ED50 (reduction of immobility time)
Experimental: Process: The procedure is similar to that described by Steru et al. [Psychopharmacol. 85, p. 367-(1985)]. The animals are suspended by the tail 75 cm above the bench surface. The duration of immobility is measured over a period of 5 minutes: the animals are considered as being immobile only when they hang passively and completely motionless. The compounds were administered orally 30 minutes before the test.

NMDA receptor [3] = assay: Release of [3H]noradrenalin stimulated by NMDA in rat hippocampus slices; type: cell-based; conditions: aCSF lacking Mg2+, 100 μM NMDA, read-out: IC50 for antagonizing the effect of 100 μM NMDA on [3H]noradrenalin release
Experimental: The preparation of the slices is analogous to that described previously. The slices were perfused in the presence of [^3H] noradrenalin with an aCSF lacking in Mg^2+ ions. After perfusion for 45 minutes to equilibrate the system, 7 fractions of 5 minutes each were collected. The test compounds were added to the perfusion liquid 10 minutes before starting the collection of the fractions, while 100 μM NMDA was added only to fraction 4, from the fifteenth minute after the start of collection.
At the end of the experiment, the radioactivity present was counted as described previously. For each sample, the percentage ratio between the fractional release in fraction 4 in the presence of NMDA and the fractional release in the first collected fraction was determined. The activity of the test drugs was expressed as a mean percentage value of the number of experiments performed relative to the percentage increase in the release of [^3H] noradrenalin into the NMDA-stimulated control chambers in the absence of antagonists.

rat striatum slices [4] = assay: Basal release of [3H]acetylcholine from rat striatum slices in perfusion; type: cell-based; conditions: inactive = at the concentration in parentheses
Experimental: as §1, §2, §3, §4

[5] = test system: rat parieto-occipital cortex slices; assay: Release of [3H]D-aspartate evoked by 30 mM KCl under hypoglycaemic conditions in rat parieto-occipital slices; type: cell-based; conditions: read-out: IC50 for antagonizing the hypoglycaemia-induced increase in the release of [3H]D-aspartate
Experimental: This in vitro experimental model was designed to mimic a condition of […] and is a modification of the model reported by Zablocka B. and Domanska-Janik K., [NeuroReport 6, 85–88 (1994)].
Rat parieto-occipital cortex is removed and sectioned into 400 μm coronal slices. The cortical slices are incubated at 37° C. for 30 minutes with [^3H]D-aspartate and then, after washing for 45 minutes, stimulated for 5 minutes with a hypertonic potassium solution (30 mM). Once the basal conditions have been restored, the slices are perfused with a glucose-free medium for 20 minutes. The test compounds are at this point added to a standard medium containing glucose and perfused until the end of the experiment. 10 minutes from the end of the hypoglycaemic period, a further hypertonic potassium stimulation depolarizes the neuronal membrane, causing an approximately 75% increase in the release of [^3H]D-aspartate evoked under control conditions.

rat striatum slices [6] = assay: Basal release of [3H]dopamine from rat striatum slices in perfusion; type: cell-based; conditions: inactive = at the concentration in parentheses
Experimental: as §1, §2, §3, §4

mouse [7] = assay: Swimming test (Porsolt) in the mouse; type: in vivo
Experimental: Process: The procedure is similar to that described by Porsolt et al. (Arch. Int. Pharmacodyn. 229, p. 327–336 (1977).
Naïve (unconditioned) mice are subjected to forced swimming for 15 minutes in a glass cylinder containing 20 cm of water at a temperature of 25° C. The period of immobility from the third to the sixth minute (inclusive) and the time to reach total immobility from the sixth to the fifteenth minute were measured. Total immobility is defined as the latent time required in order for the animal to remain immobile for at least 30 seconds. The compounds were administered orally 60 minutes before the test.

[8] = 1 mg/kg orally 30 minutes before the test
[9] = 10 mg/kg orally 30 minutes before the test
[10] = 0.1 mg/kg orally 60 minutes before the test
[11] = 1 mg/kg orally 60 minutes before the test
[12] = 10 mg/kg orally 60 minutes before the test
[13] = 3 mg/kg orally 60 minutes before the test
[14] = 30 mg/kg orally 60 minutes before the test

Chain of NO-synthetase (NOS) (G1SGE1 entry or part of it): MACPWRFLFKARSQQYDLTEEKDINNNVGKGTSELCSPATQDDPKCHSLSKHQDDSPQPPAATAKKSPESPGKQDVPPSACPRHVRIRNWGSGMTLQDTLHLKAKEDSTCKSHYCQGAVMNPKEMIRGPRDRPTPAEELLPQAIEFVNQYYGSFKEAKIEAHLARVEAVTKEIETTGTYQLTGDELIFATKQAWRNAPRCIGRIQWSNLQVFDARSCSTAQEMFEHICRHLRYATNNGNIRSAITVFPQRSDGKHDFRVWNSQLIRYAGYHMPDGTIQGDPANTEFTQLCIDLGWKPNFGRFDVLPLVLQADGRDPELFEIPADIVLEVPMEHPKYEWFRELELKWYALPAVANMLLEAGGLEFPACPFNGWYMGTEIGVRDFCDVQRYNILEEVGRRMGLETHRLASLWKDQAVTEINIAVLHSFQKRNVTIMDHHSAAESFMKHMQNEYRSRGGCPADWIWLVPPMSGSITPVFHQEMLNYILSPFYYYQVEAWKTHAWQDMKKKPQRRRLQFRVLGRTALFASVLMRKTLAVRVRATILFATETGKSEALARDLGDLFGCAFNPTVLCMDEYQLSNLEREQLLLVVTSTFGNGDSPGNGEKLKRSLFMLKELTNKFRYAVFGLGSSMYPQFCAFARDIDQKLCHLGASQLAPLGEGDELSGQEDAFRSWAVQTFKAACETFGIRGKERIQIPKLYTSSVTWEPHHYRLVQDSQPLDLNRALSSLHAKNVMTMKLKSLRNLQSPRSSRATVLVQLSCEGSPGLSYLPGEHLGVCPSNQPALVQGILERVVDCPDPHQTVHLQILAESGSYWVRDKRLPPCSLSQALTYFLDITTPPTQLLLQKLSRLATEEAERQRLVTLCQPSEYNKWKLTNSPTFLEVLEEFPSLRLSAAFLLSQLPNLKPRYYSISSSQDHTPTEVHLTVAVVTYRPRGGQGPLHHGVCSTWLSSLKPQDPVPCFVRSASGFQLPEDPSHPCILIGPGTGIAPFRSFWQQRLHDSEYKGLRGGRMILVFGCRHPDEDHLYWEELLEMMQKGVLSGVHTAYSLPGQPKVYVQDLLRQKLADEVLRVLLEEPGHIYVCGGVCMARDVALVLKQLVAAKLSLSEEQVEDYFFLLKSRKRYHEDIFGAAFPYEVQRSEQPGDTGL

Structure (SMILES): CC12CC3CC(C)(C1)CC(CCNC(=N)N[N+](=O)[O-])(C3)C2 [Compound 6, N-[2-(3,5-dimethyl-1-adamantyl)ethyl]-nitroguanidine]
IC50 (NO-synthetase (NOS)): 80.4 µM

Structure (SMILES): CC12CC3CC(C)(C1)CC(N)(C3)C2 [Memantine, reference compound]
IC50 (NMDA receptor [1]): 80 µM | Basal release of [3H]NE on hippocampus slices: concentration increasing basal release by 100% (rat hippocampus slices): 130 µM | Immobility time (mouse [2]; 0.1 mg/kg orally 30 minutes before the test): 49.9 s | % effect vs control (mouse [2]; 0.1 mg/kg orally): 36.8% | Immobility time (mouse [2]; [8]): 48.9 s | % effect vs control (mouse [2]; 1 mg/kg orally): 38.0% | Immobility time (mouse [2]; [9]): 40.1 s | % effect vs control (mouse [2]; 10 mg/kg orally): 49.2% | ED50 (mouse [2]): 24.9 mg/kg | IC50 (NMDA receptor [3]): 1.6 µM | Basal release of [3H]Ach on striatum slices: concentration increasing basal release by 100% (rat striatum slices [4]): inactive (100 μM) | IC50 [5]: 7.5 µM | Inhibition of the production of nitrite (NO-synthetase (NOS); up to the maximum concentration tested (3×10^−4M)): entirely inactive | Basal release of [3H]DA on striatum slices: concentration increasing basal release by 100% (rat striatum slices [6]): inactive (30 μM)

Structure (SMILES): COC(=O)[C@@H](N)CCCNC(=N)N[N+](=O)[O-] [L-NAME]
IC50 (NO-synthetase (NOS)): 340 µM

Structure (SMILES): CC(=N)NCCC12CC3CC(CC(C3)C1)C2 (as salt: HCl) [Compound 1]
melting point: 243 °C

Structure (SMILES): CN(C)CCC=C1c2ccccc2CCc2ccccc21 [Amitryptiline, reference compound]
Immobility in sec. (3–6 mins) (mouse [7]; [13]): 54.9 s | Latent time vs immobility in sec. (6–15 mins) (mouse [7]; [13]): 477.5 s | Immobility in sec. (3–6 mins) (mouse [7]; [12]): 56.0 s | Latent time vs immobility in sec. (6–15 mins) (mouse [7]; [12]): 461.0 s | Immobility in sec. (3–6 mins) (mouse [7]; [14]): 42.0 s | Latent time vs immobility in sec. (6–15 mins) (mouse [7]; [14]): 607.8** sec.

Structure (SMILES): CC(=N)NCCC12CC3CC(C)(CC(C)(C3)C1)C2 [Compound 2, N-[2-(3,5-dimethyl-1-adamantyl)ethyl]-acetamidine]
IC50 (NMDA receptor [1]): ~40 µM | Basal release of [3H]NE on hippocampus slices: concentration increasing basal release by 100% (rat hippocampus slices): 6 µM | Immobility time (mouse [2]; 0.3 mg/kg orally 30 minutes before the test): 56.6 s | % effect vs control (mouse [2]; 0.3 mg/kg orally): 25.7% | Immobility time (mouse [2]; [8]): 48.0 s | % effect vs control (mouse [2]; 1 mg/kg orally): 37.0% | Immobility time (mouse [2]; 3 mg/kg orally 30 minutes before the test): 42.6 s | % effect vs control (mouse [2]; 3 mg/kg orally): 44.1% | Immobility time (mouse [2]; [9]): 35.1 s | % effect vs control (mouse [2]; 10 mg/kg orally): 53.9% | ED50 (mouse [2]): 6 mg/kg | IC50 (NMDA receptor [3]): 0.8 µM | Basal release of [3H]Ach on striatum slices: concentration increasing basal release by 100% (rat striatum slices [4]): inactive | IC50 [5]: 2.5 µM | Basal release of [3H]DA on striatum slices: concentration increasing basal release by 100% (rat striatum slices [6]): 2 µM

Further lines, with some results ahead:

melting point: 246 °C
Structure (SMILES): N=C(N)NCCC12CC3CC(CC(C3)C1)C2 (as salt: HCl) [Compound 3]

IC50 (NMDA receptor [1]): ~40 µM | IC50 (NMDA receptor [3]): 0.5 µM | IC50 [5]: 0.8 µM
Structure (SMILES): CC12CC3CC(C)(C1)CC(CCNC(=N)N)(C3)C2 [Compound 4, N-[2-(3,5-dimethyl-1-adamantyl)ethyl]guanidine]
Basal release of [3H]NE on hippocampus slices: concentration increasing basal release by 100% (rat hippocampus slices): 15 µM | Basal release of [3H]Ach on striatum slices: concentration increasing basal release by 100% (rat striatum slices [4]): 20 µM | Basal release of [3H]DA on striatum slices: concentration increasing basal release by 100% (rat striatum slices [6]): 8 µM | Immobility in sec. (3–6 mins) (mouse [7]; [10]): 39.3* sec. | Latent time vs immobility in sec. (6–15 mins) (mouse [7]; [10]): 353.3 s | Immobility in sec. (3–6 mins) (mouse [7]; [11]): 39.8* sec. | Latent time vs immobility in sec. (6–15 mins) (mouse [7]; [11]): 450.8* sec. | Immobility in sec. (3–6 mins) (mouse [7]; [12]): 42.4* sec. | Latent time vs immobility in sec. (6–15 mins) (mouse [7]; [12]): 495.8* sec.

melting point: 260 °C
Structure (SMILES): N=C(NCCC12CC3CC(CC(C3)C1)C2)N[N+](=O)[O-] [Compound 5]

melting point: 96 °C
Structure (SMILES): CC12CC3CC(C)(C1)CC(CCNC(=N)C1CC1)(C3)C2 [Compound 7]
